Laboratory results published in ChEMBL document CHEMBL1201862, “PubChem BioAssay data set” (2004).
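Tested at 5 concentrations; 48 h exposure; 96-well plates; endpoints linearly interpolated, else capped at highest concentration. Abbreviation: GI50, concentration required for 50% inhibition of growth.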 The source made the active and inactive calls. No stated cut-off is given here; in the data, active = GI50 up to about 1.1 µM and inactive = higher. Peptide text beside a SMILES is read from it. * marks the point of attachment. Boc = CC(C)(C)OC(=O)*; OBn = c1ccc(CO*)cc1

Tests used:
Experiment in all cases: inhibition of tumour cell growth, NCI panel, 48 h
[1] = tested on: 786-0
[2] = tested on: CAKI-1
[3] = tested on: DU-145
[4] = tested on: HCC 2998
[5] = tested on: HCT-116
[6] = tested on: MDA-MB-231
[7] = tested on: MOLT-4
[8] = tested on: NCI-H522
[9] = tested on: NCI/ADR-RES
[10] = tested on: OVCAR-4
[11] = tested on: OVCAR-5
[12] = tested on: PC-3
[13] = tested on: RPMI-8226
[14] = tested on: RXF 393
[15] = tested on: SF-295
[16] = tested on: SF-539
[17] = tested on: UACC-62
[18] = tested on: Malme-3M

Structure (SMILES)	GI50 [1]	GI50 [2]	GI50 [3]	GI50 [4]	GI50 [5]	GI50 [6]	GI50 [7]	GI50 [8]	GI50 [9]	GI50 [10]	GI50 [11]	GI50 [12]	GI50 [13]	GI50 [14]	GI50 [15]	GI50 [16]	GI50 [17]	GI50 [18]
O=C(OCC12CC3CC(CC(C3)C1)C2)c1ccc(NCc2cc(O)ccc2O)cc1	0.708 µM (active)	0.466 µM (active)	3.54 µM (inactive)	1.79 µM (inactive)	2.26 µM (inactive)	4.06 µM (inactive)	0.115 µM (active)	0.0662 µM (active)	1.47 µM (inactive)	1.05 µM (active)	2.1 µM (inactive)	0.713 µM (active)	0.199 µM (active)	1.29 µM (inactive)	3.76 µM (inactive)	0.544 µM (active)	1.6 µM (inactive)	–
O=c1c(Cc2ccccc2Cc2c(O)oc3ccccc3c2=O)c(O)oc2ccccc12	> 100 µM (inactive)	> 100 µM (inactive)	> 100 µM (inactive)	–	> 100 µM (inactive)	> 100 µM (inactive)	> 100 µM (inactive)	> 100 µM (inactive)	> 100 µM (inactive)	> 100 µM (inactive)	> 100 µM (inactive)	> 100 µM (inactive)	> 100 µM (inactive)	> 100 µM (inactive)	> 100 µM (inactive)	> 100 µM (inactive)	> 100 µM (inactive)	> 100 µM (inactive)
CCC1CCC2c3c([nH]c4ccccc34)C3C(=O)N(c4ccc(OC)cc4)C(=O)C3C2C1 (stereo unspecified)	> 100 µM (inactive)	–	> 100 µM (inactive)	91.2 µM (inactive)	20 µM (inactive)	49.7 µM (inactive)	16.7 µM (inactive)	77.6 µM (inactive)	39.6 µM (inactive)	14.9 µM (inactive)	–	> 100 µM (inactive)	55 µM (inactive)	> 100 µM (inactive)	26.8 µM (inactive)	34 µM (inactive)	61.8 µM (inactive)	–
CC(=O)C(=[N+]=[N-])C(=O)OCCOC(=O)C(=[N+]=[N-])C(C)=O	> 1 µM (active)	–	> 1 µM (active)	> 1 µM (active)	> 1 µM (active)	> 1 µM (active)	> 1 µM (active)	–	–	–	> 1 µM (active)	> 1 µM (active)	> 1 µM (active)	> 1 µM (active)	> 1 µM (active)	> 1 µM (active)	> 1 µM (active)	> 1 µM (active)
N#CCCOc1cccc(C2(N3CCCCC3)CCCCC2)c1	> 100 µM (inactive)	> 100 µM (inactive)	> 100 µM (inactive)	–	> 100 µM (inactive)	> 100 µM (inactive)	> 100 µM (inactive)	> 100 µM (inactive)	> 100 µM (inactive)	> 100 µM (inactive)	> 100 µM (inactive)	> 100 µM (inactive)	> 100 µM (inactive)	–	> 100 µM (inactive)	> 100 µM (inactive)	> 100 µM (inactive)	> 100 µM (inactive)
Clc1ccc(OCc2nnc3sc(SSc4nn5c(COc6ccc(Cl)cc6)nnc5s4)nn23)cc1	> 100 µM (inactive)	–	> 100 µM (inactive)	–	> 100 µM (inactive)	> 100 µM (inactive)	–	63.1 µM (inactive)	> 100 µM (inactive)	–	> 100 µM (inactive)	–	44.8 µM (inactive)	–	> 100 µM (inactive)	> 100 µM (inactive)	–	> 100 µM (inactive)
O=C(c1cc(Cl)cc(Cl)c1)N1CCN(C(=O)c2cc(Cl)cc(Cl)c2)C1=S	2.4 µM (inactive)	11.9 µM (inactive)	9.18 µM (inactive)	16.7 µM (inactive)	16.4 µM (inactive)	15.7 µM (inactive)	3.94 µM (inactive)	4.38 µM (inactive)	–	19.1 µM (inactive)	20.6 µM (inactive)	13.9 µM (inactive)	2.38 µM (inactive)	11.8 µM (inactive)	20.3 µM (inactive)	7.28 µM (inactive)	9.91 µM (inactive)	11.6 µM (inactive)
CCCNC(=O)Cn1c(C)cc2ccccc21	> 100 µM (inactive)	> 100 µM (inactive)	> 100 µM (inactive)	> 100 µM (inactive)	> 100 µM (inactive)	–	> 100 µM (inactive)	> 100 µM (inactive)	> 100 µM (inactive)	> 100 µM (inactive)	> 100 µM (inactive)	> 100 µM (inactive)	> 100 µM (inactive)	> 100 µM (inactive)	> 10 µM (inactive)	> 100 µM (inactive)	> 100 µM (inactive)	> 100 µM (inactive)
CC(NC(=O)C(NC(=O)OC(C)(C)C)C(C)C)C(=O)N1CCCC1C(=O)NCC(=O)NC(C(=O)NCC(=O)OCc1ccccc1)C(C)C (stereo unspecified) (Boc-VAPGVG-OBn; configuration not given here)	> 100 µM (inactive)	> 100 µM (inactive)	> 100 µM (inactive)	> 100 µM (inactive)	> 100 µM (inactive)	> 100 µM (inactive)	> 10 µM (inactive)	> 100 µM (inactive)	> 100 µM (inactive)	> 100 µM (inactive)	> 100 µM (inactive)	> 100 µM (inactive)	> 100 µM (inactive)	–	> 100 µM (inactive)	> 100 µM (inactive)	66.4 µM (inactive)	> 100 µM (inactive)
